Test results published in ChEMBL document CHEMBL1201862, “PubChem BioAssay data set” (2004).
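Each compound was tested at five concentrations against cells in 96-well plates for 48 hours. At the GI50, growth is halved.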 Calls of active or inactive are those of the source. Rule as the data show it: active = GI50 up to about 1.1 µM and inactive = higher.

Legend:
Assay in all cases: growth of human tumour cells (NCI), 48 h
IGROV-1 = tested on: IGROV-1
SNB-19 = tested on: SNB-19
SN12C = tested on: SN12C
M19-MEL = tested on: M19-MEL
HL-60 = tested on: HL-60
ACHN = tested on: ACHN
EKVX = tested on: EKVX
SK-OV-3 = tested on: SK-OV-3
HCT-15 = tested on: HCT-15
SK-MEL-2 = tested on: SK-MEL-2
OVCAR-3 = tested on: OVCAR-3
RXF 631 = tested on: RXF 631
NCI-H226 = tested on: NCI-H226
SF-295 = tested on: SF-295
A549 = tested on: A549
RPMI-8226 = tested on: RPMI-8226
SF-539 = tested on: SF-539
NCI-H460 = tested on: NCI-H460
NCI-H23 = tested on: NCI-H23
HOP-62 = tested on: HOP-62
CCRF-CEM = tested on: CCRF-CEM
UACC-257 = tested on: UACC-257
UO-31 = tested on: UO-31
COLO 205 = tested on: COLO 205
KM12 = tested on: KM12
CAKI-1 = tested on: CAKI-1
NCI-H522 = tested on: NCI-H522
OVCAR-4 = tested on: OVCAR-4
DLD-1 = tested on: DLD-1
HT-29 = tested on: HT-29
MOLT-4 = tested on: MOLT-4
LXFL 529 = tested on: LXFL 529
LOX IMVI = tested on: LOX IMVI
SW-620 = tested on: SW-620
OVCAR-8 = tested on: OVCAR-8
SK-MEL-28 = tested on: SK-MEL-28
TK-10 = tested on: TK-10
DMS-114 = tested on: DMS-114
SF-268 = tested on: SF-268
Malme-3M = tested on: Malme-3M
RXF 393 = tested on: RXF 393
SK-MEL-5 = tested on: SK-MEL-5
XF498 = tested on: XF498
UACC-62 = tested on: UACC-62
OVCAR-5 = tested on: OVCAR-5
HOP-92 = tested on: HOP-92
SNB-78 = tested on: SNB-78
SNB-75 = tested on: SNB-75
SR = tested on: SR
U-251 = tested on: U-251
786-0 = tested on: 786-0
K562 = tested on: K562
M14 = tested on: M14
DMS-273 = tested on: DMS-273
KM-20L2 = tested on: KM-20L2
HCC 2998 = tested on: HCC 2998
A498 = tested on: A498
HOP-18 = tested on: HOP-18
HCT-116 = tested on: HCT-116

SMILES: Cn1cc(C(=O)c2ccccc2)cc(C(=O)c2ccccc2)c1=O
- GI50 (IGROV-1): > 100 µM (inactive)
- GI50 (SNB-19): > 100 µM (inactive)
- GI50 (SN12C): > 100 µM (inactive)
- GI50 (M19-MEL): > 100 µM (inactive)
- GI50 (HL-60): > 100 µM (inactive)
- GI50 (ACHN): > 100 µM (inactive)
- GI50 (EKVX): > 100 µM (inactive)
- GI50 (SK-OV-3): > 100 µM (inactive)
- GI50 (HCT-15): > 100 µM
- GI50 (SK-MEL-2): > 100 µM (inactive)
- GI50 (OVCAR-3): > 100 µM (inactive)
- GI50 (RXF 631): > 100 µM (inactive)
- GI50 (NCI-H226): > 100 µM (inactive)
- GI50 (SF-295): > 100 µM (inactive)
- GI50 (A549): > 100 µM (inactive)
- GI50 (RPMI-8226): > 100 µM (inactive)
- GI50 (SF-539): > 100 µM (inactive)
- GI50 (NCI-H460): > 100 µM (inactive)
- GI50 (NCI-H23): > 100 µM (inactive)
- GI50 (HOP-62): > 100 µM (inactive)
- GI50 (CCRF-CEM): > 100 µM (inactive)
- GI50 (UACC-257): > 100 µM (inactive)
- GI50 (UO-31): > 100 µM (inactive)
- GI50 (COLO 205): > 100 µM (inactive)
- GI50 (KM12): > 100 µM (inactive)
- GI50 (CAKI-1): > 100 µM (inactive)
- GI50 (NCI-H522): > 100 µM (inactive)
- GI50 (OVCAR-4): > 100 µM (inactive)
- GI50 (DLD-1): > 100 µM (inactive)
- GI50 (HT-29): > 100 µM (inactive)
- GI50 (MOLT-4): > 100 µM (inactive)
- GI50 (LXFL 529): > 100 µM (inactive)
- GI50 (LOX IMVI): > 100 µM (inactive)
- GI50 (SW-620): > 100 µM (inactive)
- GI50 (OVCAR-8): > 100 µM (inactive)
- GI50 (SK-MEL-28): > 100 µM (inactive)
- GI50 (TK-10): > 100 µM (inactive)
- GI50 (DMS-114): > 100 µM (inactive)
- GI50 (SF-268): > 100 µM (inactive)
- GI50 (Malme-3M): > 100 µM (inactive)
- GI50 (RXF 393): > 100 µM (inactive)
- GI50 (SK-MEL-5): > 100 µM (inactive)
- GI50 (XF498): > 100 µM (inactive)
- GI50 (UACC-62): > 100 µM (inactive)
- GI50 (OVCAR-5): > 100 µM (inactive)
- GI50 (HOP-92): > 100 µM (inactive)
- GI50 (SNB-78): > 100 µM (inactive)
- GI50 (SNB-75): > 100 µM (inactive)
- GI50 (SR): > 100 µM (inactive)
- GI50 (U-251): > 100 µM (inactive)
- GI50 (786-0): > 100 µM (inactive)
- GI50 (K562): > 100 µM (inactive)
- GI50 (M14): > 100 µM (inactive)
- GI50 (DMS-273): > 100 µM (inactive)
- GI50 (KM-20L2): > 100 µM (inactive)
- GI50 (HCC 2998): > 100 µM (inactive)

SMILES: COc1cc2ccnc(-c3n[nH]c4cc(OC)c(OC)cc34)c2cc1OC
- GI50 (IGROV-1): > 100 µM (inactive)
- GI50 (SNB-19): > 100 µM (inactive)
- GI50 (SN12C): > 100 µM (inactive)
- GI50 (M19-MEL): > 100 µM (inactive)
- GI50 (HL-60): > 100 µM (inactive)
- GI50 (ACHN): > 100 µM (inactive)
- GI50 (EKVX): > 100 µM (inactive)
- GI50 (SK-OV-3): > 100 µM (inactive)
- GI50 (HCT-15): > 100 µM
- GI50 (SK-MEL-2): > 100 µM (inactive)
- GI50 (OVCAR-3): > 100 µM (inactive)
- GI50 (RXF 631): 33 µM (inactive)
- GI50 (A498): > 100 µM (inactive)
- GI50 (NCI-H226): > 100 µM (inactive)
- GI50 (SF-295): > 100 µM (inactive)
- GI50 (A549): > 100 µM (inactive)
- GI50 (RPMI-8226): > 100 µM (inactive)
- GI50 (SF-539): > 100 µM (inactive)
- GI50 (NCI-H460): > 100 µM (inactive)
- GI50 (NCI-H23): > 100 µM (inactive)
- GI50 (HOP-62): > 100 µM (inactive)
- GI50 (CCRF-CEM): > 100 µM (inactive)
- GI50 (UACC-257): > 100 µM (inactive)
- GI50 (UO-31): > 100 µM (inactive)
- GI50 (COLO 205): > 100 µM (inactive)
- GI50 (KM12): > 100 µM (inactive)
- GI50 (CAKI-1): > 100 µM (inactive)
- GI50 (NCI-H522): 22 µM (inactive)
- GI50 (OVCAR-4): > 100 µM (inactive)
- GI50 (HT-29): > 100 µM (inactive)
- GI50 (MOLT-4): > 100 µM (inactive)
- GI50 (LXFL 529): > 100 µM (inactive)
- GI50 (LOX IMVI): > 100 µM (inactive)
- GI50 (SW-620): > 100 µM (inactive)
- GI50 (OVCAR-8): > 100 µM (inactive)
- GI50 (SK-MEL-28): > 100 µM (inactive)
- GI50 (TK-10): > 100 µM (inactive)
- GI50 (DMS-114): > 100 µM (inactive)
- GI50 (SF-268): 62.4 µM (inactive)
- GI50 (Malme-3M): > 100 µM (inactive)
- GI50 (SK-MEL-5): > 100 µM (inactive)
- GI50 (XF498): > 100 µM (inactive)
- GI50 (UACC-62): > 100 µM (inactive)
- GI50 (OVCAR-5): > 100 µM (inactive)
- GI50 (HOP-92): > 100 µM (inactive)
- GI50 (HOP-18): > 100 µM (inactive)
- GI50 (HCT-116): > 100 µM (inactive)
- GI50 (SNB-75): > 100 µM (inactive)
- GI50 (SR): > 100 µM (inactive)
- GI50 (U-251): > 100 µM (inactive)
- GI50 (786-0): > 100 µM (inactive)
- GI50 (K562): > 100 µM (inactive)
- GI50 (M14): > 100 µM (inactive)
- GI50 (DMS-273): > 100 µM (inactive)
- GI50 (KM-20L2): > 100 µM (inactive)
- GI50 (HCC 2998): > 100 µM (inactive)
